Results as given in article PMC10155203 (Molecular Pharmaceutics, 2023).
Like-named read-outs stand apart in the source and are kept apart here.

Assays:
[1] = Study 2: PPI (rabeprazole) interaction clinical study, single oral dose of encorafenib, plasma PK and safety; type: in vivo, human; conditions: for Tmax: median (range); for Vd/F: read-out: Vz/F; for CL/F: mean ± SD
Method: Both studies were conducted at the Celerion Clinical Research Unit in Lincoln, NE. The trial protocols and informed consent documentation were reviewed and approved by the institutional review boards at the center. These studies were conducted in compliance with the ethical principles originating in or derived from the Declaration of Helsinki and in compliance with all International Council for Harmonization Good Clinical Practice Guideline.
The AEs described were consistent with the known safety profile of encorafenib.
Additionally, participants were instructed not to crush, split, or chew the study drug. […]
The actual sample collection times were used for the PK parameter analysis.
The overall safety profile was characterized by laboratory test abnormalities, physical examination, vital signs, ECGs, and AEs. […] Triplicate ECGs were also measured at the end of the studies or upon early termination.
These were back-transformed to obtain the GMRs and corresponding 90% CIs on the original scale. The ratios were expressed as a percentage relative to the reference treatment.

[2] = PBPK modeling in GastroPlus 9.8 (model parameters and predicted absorption); design: species or system human; conditions: estimated; increased from GastroPlus default value
Method: Simulations were performed using the commercially available PBPK modeling platform GastroPlus 9.8 (Simulations Plus, Inc., Lancaster, CA). Input and final parameters for the model were published by Del Frari et al.[29] […] The fasted, fed, and PPI states were predicted for the encorafenib commercial capsule. All input data for the platform are shown in Table 2 and were based on physicochemical properties of the compound, formulation characteristics and absorption, distribution, metabolism, and excretion properties. […] Related to dissolution, the Johnson model was selected. This model is an extension of the Nernst–Brunner dissolution model and accounts for changing particle radius during dissolution as well as for dissolution of cylindrical particles. […] Gathered information concerning physicochemical and biopharmaceutical properties was obtained in-house. Fasted state physiology in the human GI tract was simulated by selecting the fluid volumes as observed by the magnetic resonance imaging study of Mudie et al.[30] to address biorelevant fluid volumes in the different GI compartments. In the case of the fed state, the stomach transit time was adjusted and optimized to a value of 2.25 h for consistency with the observed PK data, and the physiology was adjusted to fed state conditions (default settings). […]

[3] = design: method as in PMID 27693678; conditions: estimated using PKPlus module, cited from earlier work
[4] = study 2, encorafenib 100 mg + rabeprazole
[5] = study 2, encorafenib 100 mg + rabeprazole vs alone
[6] = study 2, encorafenib 100 mg alone
[7] = study 2, encorafenib 300 mg alone

COC(=O)N[C@@H](C)CNc1nccc(-c2cn(C(C)C)nc2-c2cc(Cl)cc(NS(C)(=O)=O)c2F)n1 [encorafenib, Encorafenib]
tolerability ([1]; 300 mg dose compared with 100 mg dose, healthy participants): tolerated with more difficulty | AUC(0-inf) ([1]; human, plasma, oral, 100 mg): 4140 ng·h/mL | AUC(0-t) ([1]; human, plasma, oral, 100 mg): 4120 ng·h/mL | Cmax ([1]; human, plasma, oral, 100 mg): 1040 ng/mL | Tmax ([1]; human, plasma, oral, 100 mg, study 2, encorafenib 100 mg alone, read-out: Tmax): 1.5 h | Vd/F ([1]; human, plasma, oral, 100 mg): 247 ± 208 L | half-life ([1]; human, plasma, oral, 100 mg, read-out: t1/2 (converted)): 452 ± 455 min | AUC(0-inf) ([1]; human, plasma, oral, 300 mg): 14800 ng·h/mL | AUC(0-t) ([1]; human, plasma, oral, 300 mg): 14700 ng·h/mL | Cmax ([1]; human, plasma, oral, 300 mg): 3900 ng/mL | Tmax ([1]; human, plasma, oral, 300 mg, study 2, encorafenib 300 mg alone, read-out: Tmax): 1.5 h | Vd/F ([1]; human, plasma, oral, 300 mg): 470 ± 339 L | half-life ([1]; human, plasma, oral, 300 mg, read-out: t½ (converted)): 953 ± 698 min | Tmax ([1]; human, plasma, oral, study 2, encorafenib 100 mg + rabeprazole, read-out: Tmax): 2 h | changes in vital signs, laboratory values, or ECG measurements ([1]; study 2): No clinically significant changes | participants reporting feeling hot ([1]; study 2): 53% | participants reporting flushing ([1]; study 2): 80% | participants reporting headache ([1]; study 2): 93% | number of AEs of grade 2/moderate severity ([1]; study 2 (headache, nausea, myalgia)): 3 AEs | participants reporting AEs [1, 4]: 82% | mean change in AUCinf with PPI coadministration [1, 5]: < 10% | mean change in AUClast with PPI coadministration [1, 5]: < 10% | mean change in Cmax with PPI coadministration [1, 5]: < 10% | number of AEs reported ([1]; study 2, encorafenib 100 mg + rabeprazole, 11 participants): 23 AEs | CL/F [1, 4]: 26.31 ± 9.1417 L/h | participants reporting AEs [1, 6]: 90% | number of AEs reported ([1]; study 2, encorafenib 100 mg alone, 10 participants): 24 AEs | CL/F [1, 6]: 25.33 ± 8.0601 L/h | Tmax [1, 6]: 1.503 (1.01, 2.00) h | participants reporting AEs [1, 7]: 100% | number of AEs reported ([1]; study 2, encorafenib 300 mg alone, 15 participants): 106 AEs | CL/F [1, 7]: 20.59 ± 3.9043 L/h | participants who discontinued due to an AE ([1]; study 2, of 15 participants): 1 participants | participants reporting AEs ([1]; study 2, overall): 15 of 15 | mean precipitation time [2]: 90000 s | clearance ([3]; 2-compartmental, 100 mg fasted): 16.08 L/h[31] | K10 [3]: 0.197 h^–1[31] | K12 [3]: 0.173 h^–1[31] | K21 [3]: 0.016 h^–1[31]
